Among the data in ChEMBL document CHEMBL1201862, “PubChem BioAssay data set” (2004) are EC50 and AC50 values, retold here.

SMILES strings stand for the structures. Active and inactive are the calls of the source. Where only a bound is given, the exact number is not on record here.

The target in test [1] is Peroxisome proliferator-activated receptor gamma/Nuclear receptor coactivator 3 (Homo sapiens, UniProt P37231). It counts as functional.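 Further: agonist potency for raising coactivator recruitment to the receptor.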
In test [2] the target is Peroxisome proliferator-activated receptor gamma/Nuclear receptor coactivator 2 (Homo sapiens, UniProt P37231). Type of test: functional.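 Further: agonist potency for raising coactivator recruitment to the receptor.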
Sequence of Peroxisome proliferator-activated receptor gamma/Nuclear receptor coactivator 2 (P37231 whole entry): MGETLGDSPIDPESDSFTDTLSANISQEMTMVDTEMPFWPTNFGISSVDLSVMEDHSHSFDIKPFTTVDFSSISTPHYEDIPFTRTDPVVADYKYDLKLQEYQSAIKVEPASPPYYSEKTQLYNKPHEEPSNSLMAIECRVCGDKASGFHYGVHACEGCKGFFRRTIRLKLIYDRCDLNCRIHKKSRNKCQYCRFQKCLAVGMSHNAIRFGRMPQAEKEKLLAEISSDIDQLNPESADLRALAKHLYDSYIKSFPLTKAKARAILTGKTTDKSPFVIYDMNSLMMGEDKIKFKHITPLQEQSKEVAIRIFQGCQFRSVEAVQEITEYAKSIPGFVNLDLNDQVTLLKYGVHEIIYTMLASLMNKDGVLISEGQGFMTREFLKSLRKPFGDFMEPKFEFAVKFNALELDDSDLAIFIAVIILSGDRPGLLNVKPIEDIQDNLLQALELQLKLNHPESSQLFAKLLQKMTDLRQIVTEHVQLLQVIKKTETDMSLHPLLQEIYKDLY
Sequence of Peroxisome proliferator-activated receptor gamma/Nuclear receptor coactivator 2 (Q15596 whole entry, further chain): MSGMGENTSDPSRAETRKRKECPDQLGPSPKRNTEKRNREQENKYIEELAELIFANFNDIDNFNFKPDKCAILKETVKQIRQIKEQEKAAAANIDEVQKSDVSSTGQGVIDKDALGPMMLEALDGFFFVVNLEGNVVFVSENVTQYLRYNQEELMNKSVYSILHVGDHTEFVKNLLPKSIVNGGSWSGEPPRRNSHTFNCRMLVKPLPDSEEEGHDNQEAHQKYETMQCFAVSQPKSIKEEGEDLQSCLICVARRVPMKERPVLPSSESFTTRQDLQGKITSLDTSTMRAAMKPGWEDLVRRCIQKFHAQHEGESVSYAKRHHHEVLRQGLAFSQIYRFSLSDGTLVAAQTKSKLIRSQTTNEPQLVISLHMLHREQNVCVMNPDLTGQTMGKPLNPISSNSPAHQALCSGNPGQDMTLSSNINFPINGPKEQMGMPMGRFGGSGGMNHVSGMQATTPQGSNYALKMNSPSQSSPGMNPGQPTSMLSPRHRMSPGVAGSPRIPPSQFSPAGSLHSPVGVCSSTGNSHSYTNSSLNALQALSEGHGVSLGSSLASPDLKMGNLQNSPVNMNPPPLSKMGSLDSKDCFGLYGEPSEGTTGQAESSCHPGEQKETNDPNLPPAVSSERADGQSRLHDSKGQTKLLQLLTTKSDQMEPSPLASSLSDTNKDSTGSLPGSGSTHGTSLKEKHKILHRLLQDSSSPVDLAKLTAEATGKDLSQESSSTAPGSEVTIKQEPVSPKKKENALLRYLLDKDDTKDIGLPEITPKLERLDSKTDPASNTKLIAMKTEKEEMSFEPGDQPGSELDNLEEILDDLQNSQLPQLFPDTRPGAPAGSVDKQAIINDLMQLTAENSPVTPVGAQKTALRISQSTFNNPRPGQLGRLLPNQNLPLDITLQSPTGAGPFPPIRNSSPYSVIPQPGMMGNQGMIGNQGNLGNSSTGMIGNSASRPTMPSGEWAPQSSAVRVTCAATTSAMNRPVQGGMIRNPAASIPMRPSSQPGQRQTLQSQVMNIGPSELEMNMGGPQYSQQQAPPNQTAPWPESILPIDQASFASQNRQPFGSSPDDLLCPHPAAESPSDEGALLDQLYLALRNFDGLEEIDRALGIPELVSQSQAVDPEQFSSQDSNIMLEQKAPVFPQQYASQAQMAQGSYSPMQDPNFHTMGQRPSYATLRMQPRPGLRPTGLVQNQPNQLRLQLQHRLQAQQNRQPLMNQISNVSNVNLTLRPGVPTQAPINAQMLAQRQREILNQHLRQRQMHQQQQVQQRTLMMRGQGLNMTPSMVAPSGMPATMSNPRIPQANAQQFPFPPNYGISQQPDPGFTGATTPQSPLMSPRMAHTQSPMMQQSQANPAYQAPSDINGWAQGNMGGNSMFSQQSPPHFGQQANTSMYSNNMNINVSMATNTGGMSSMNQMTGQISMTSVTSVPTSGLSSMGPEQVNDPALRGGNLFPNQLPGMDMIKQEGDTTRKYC
In test [3] the target is Peroxisome proliferator-activated receptor gamma/Nuclear receptor coactivator 1 (Homo sapiens, UniProt P37231). Type of test: functional.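 Further: agonist potency as compounds enhance coactivator SRC-1 recruitment to PPARgamma.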
Sequence of Peroxisome proliferator-activated receptor gamma/Nuclear receptor coactivator 1 (P37231 whole entry): as the sequence (P37231 whole entry) above
Sequence of Peroxisome proliferator-activated receptor gamma/Nuclear receptor coactivator 1 (Q15788 whole entry, further chain): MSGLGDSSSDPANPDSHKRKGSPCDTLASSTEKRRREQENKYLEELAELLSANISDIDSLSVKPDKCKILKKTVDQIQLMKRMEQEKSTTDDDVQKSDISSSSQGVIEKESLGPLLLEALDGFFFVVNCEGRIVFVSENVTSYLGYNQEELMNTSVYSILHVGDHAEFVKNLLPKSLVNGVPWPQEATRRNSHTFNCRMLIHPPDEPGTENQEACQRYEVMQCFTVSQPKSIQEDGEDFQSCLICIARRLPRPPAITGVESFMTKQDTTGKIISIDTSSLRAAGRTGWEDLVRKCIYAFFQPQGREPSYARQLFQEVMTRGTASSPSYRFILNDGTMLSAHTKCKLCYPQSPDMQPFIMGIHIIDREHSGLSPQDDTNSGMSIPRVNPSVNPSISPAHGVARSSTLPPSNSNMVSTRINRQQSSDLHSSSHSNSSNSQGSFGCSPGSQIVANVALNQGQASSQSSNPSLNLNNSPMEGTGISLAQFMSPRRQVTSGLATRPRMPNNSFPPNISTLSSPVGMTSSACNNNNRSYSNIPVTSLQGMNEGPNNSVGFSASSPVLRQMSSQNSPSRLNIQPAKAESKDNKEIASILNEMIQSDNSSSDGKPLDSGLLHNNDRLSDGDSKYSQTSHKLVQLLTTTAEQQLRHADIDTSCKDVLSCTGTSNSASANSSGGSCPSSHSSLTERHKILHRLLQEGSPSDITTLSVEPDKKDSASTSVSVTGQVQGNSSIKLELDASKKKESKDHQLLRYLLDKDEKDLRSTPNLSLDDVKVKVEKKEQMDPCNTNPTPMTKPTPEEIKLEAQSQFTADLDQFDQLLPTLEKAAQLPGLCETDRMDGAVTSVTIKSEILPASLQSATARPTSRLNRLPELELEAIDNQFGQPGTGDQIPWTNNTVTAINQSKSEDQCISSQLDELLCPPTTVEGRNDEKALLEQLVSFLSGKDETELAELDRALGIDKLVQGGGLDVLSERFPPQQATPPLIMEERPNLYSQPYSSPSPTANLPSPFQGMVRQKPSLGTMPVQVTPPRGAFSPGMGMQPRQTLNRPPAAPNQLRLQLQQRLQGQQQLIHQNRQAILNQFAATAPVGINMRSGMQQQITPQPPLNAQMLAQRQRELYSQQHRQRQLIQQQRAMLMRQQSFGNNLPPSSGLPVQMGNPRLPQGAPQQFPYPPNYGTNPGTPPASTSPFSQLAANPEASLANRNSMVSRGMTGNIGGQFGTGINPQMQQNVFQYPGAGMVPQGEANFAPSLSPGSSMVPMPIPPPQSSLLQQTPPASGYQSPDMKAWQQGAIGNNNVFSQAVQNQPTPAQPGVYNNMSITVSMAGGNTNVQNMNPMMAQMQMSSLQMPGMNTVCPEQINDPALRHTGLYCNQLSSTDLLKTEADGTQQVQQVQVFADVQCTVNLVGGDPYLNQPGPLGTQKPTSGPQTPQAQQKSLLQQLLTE
Test [4] concerns the target Beta-2 adrenergic receptor (Homo sapiens, UniProt P07550). The test can be described thus: ADRB2 activation measured by internalization – cell-based, FAP fluorogen, flow cytometry, cherry pick 1, dose response (AID 588763). Type of test: functional. For orientation: In flow cytometry, cells or beads pass a laser one at a time.
Test [5] relates to INS1. The test can be described thus: INS-1E mitochondrial potential loss inhibitors – cell-based, JC-1 fluorescence, dry powder, set 2, dose response (AID 488867). Type of test: functional. To be noted: Rattus norvegicus.
The subject of test [6] is INS1. The test can be described thus: beta-cell survival under cytokine stress – INS-1E, ATP luminescence, dry powder, dose response (AID 488844). Type of test: functional, cell-based. The settings on record: Rattus norvegicus.
For test [7], the system named is INS1. The test can be described thus: INS-1E mitochondrial potential rescue under cytokines – cell-based, JC-1 fluorescence ratio, dry powder, dose response (AID 488931). Type of test: functional. The settings on record: Rattus norvegicus.

Sequence of Beta-2 adrenergic receptor (P07550 whole entry): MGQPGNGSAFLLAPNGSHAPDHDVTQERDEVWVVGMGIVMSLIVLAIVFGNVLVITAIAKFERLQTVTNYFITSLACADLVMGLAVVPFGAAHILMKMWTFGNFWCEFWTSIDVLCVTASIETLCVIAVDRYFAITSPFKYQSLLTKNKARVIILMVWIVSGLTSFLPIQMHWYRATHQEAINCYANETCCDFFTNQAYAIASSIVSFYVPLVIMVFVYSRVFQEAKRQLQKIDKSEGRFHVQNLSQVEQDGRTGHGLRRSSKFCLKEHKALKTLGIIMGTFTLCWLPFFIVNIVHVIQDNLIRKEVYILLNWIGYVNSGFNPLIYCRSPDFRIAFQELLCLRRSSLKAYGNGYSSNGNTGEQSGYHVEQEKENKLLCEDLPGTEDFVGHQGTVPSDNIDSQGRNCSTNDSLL

With `Cc1cc(C)n(-c2nc(SCC(=O)Nc3nccs3)c3c4c(sc3n2)COC(C)(C)C4)n1`, the EC50 (commonly the concentration at which the effect is half-maximal) is > 79.4 µM (not active) in test [1], > 79.4 µM (not active) in test [2], > 79.4 µM (not active) in test [3] and 8.85 µM (inactive) in test [4].
Turning to `COc1ccc(S(=O)(=O)N(C)C[C@H]2Oc3c(NC(=O)Nc4cccc5ccccc45)cccc3C(=O)N([C@@H](C)CO)C[C@@H]2C)cc1`, the AC50 (as a rule, the concentration at which the activity in the assay is half-maximal) was > 260 µM (inactive) in the test with INS1 [5], 85 µM (active) with INS1 [6] and 104 µM (active) in the test on INS1 [7].
